Key:
Type in all cases: in vivo
[1] = system: Galium (catchweed bedstraw, Galium aparine); assay: Test A postemergence; details: Galium, post-emergence, 240 h, Postemergence, read-out: Galium plant response rating (0 to 100 scale)
Outline: (§1)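 Seeds sprayed preemergence with a directed soil spray, or plants at 2 to 10 cm height and one- to two-leaf stage sprayed postemergence, with test chemicals in a non-phytotoxic solvent mixture containing surfactant, in loam soil–sand blend. Injury rated visually against untreated controls after about 10 d in greenhouse, 0 (no effect) to 100 (complete control).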

[2] = system: giant foxtail (Setaria faberii); assay: Test A postemergence; details: Setaria faberi, post-emergence, 240 h, Postemergence, read-out: Foxtail, Giant plant response rating (0 to 100 scale)
Outline: as §1

[3] = system: blackgrass (Alopecurus myosuroides); assay: Test A postemergence; details: Alopecurus myosuroides, post-emergence, 240 h, Postemergence, read-out: Blackgrass plant response rating (0 to 100 scale)
Outline: as §1

[4] = system: wheat (Triticum aestivum); assay: Test A postemergence; details: Triticum aestivum, post-emergence, 240 h, Postemergence, read-out: Wheat plant response rating (0 to 100 scale)
Outline: as §1

[5] = system: ryegrass, Italian (Italian ryegrass, Lolium multiflorum); assay: Test A postemergence; details: Lolium multiflorum, post-emergence, 240 h, Postemergence, read-out: Ryegrass, Italian plant response rating (0 to 100 scale)
Outline: as §1

[6] = system: pigweed (Amaranthus retroflexus); assay: Test A postemergence; details: Amaranthus retroflexus, post-emergence, 240 h, Postemergence, read-out: Pigweed plant response rating (0 to 100 scale)
Outline: as §1

Kochia (Kochia scoparia) [7] = assay: Test A postemergence; details: Bassia scoparia, post-emergence, 240 h, Postemergence, read-out: Kochia plant response rating (0 to 100 scale)
Outline: as §1

[8] = system: ragweed (common ragweed, Ambrosia elatior); assay: Test A postemergence; details: Ambrosia artemisiifolia, post-emergence, 240 h, Postemergence, read-out: Ragweed plant response rating (0 to 100 scale)
Outline: as §1

[9] = system: barnyardgrass (Echinochloa crus-galli); assay: Test A postemergence; details: Echinochloa crus-galli, post-emergence, 240 h, Postemergence
Outline: as §1

corn (Zea mays) = assay: Test A postemergence; details: Zea mays, post-emergence, 240 h, Postemergence, read-out: Corn plant response rating (0 to 100 scale)
Outline: as §1

[10] = system: ducksalad (Heteranthera limosa); assay: Test B flooded paddy test; details: Heteranthera limosa, 250 g ai/ha, Flood; 0 to 100 scale where 0 is no effect and 100 is complete control; read-out: Ducksalad plant response rating
Outline: (§2)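 Greenhouse paddy pots with 2-leaf stage plants received compound by direct addition to floodwater 3 cm deep, kept at that level. Scored visually at 13–15 d versus controls (0 no effect; 100 complete control).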

[11] = system: sedge, umbrella (small-flower umbrella sedge, Cyperus difformis); assay: Test B flooded paddy test; details: Cyperus difformis, 250 g ai/ha, Flood; 0 to 100 scale where 0 is no effect and 100 is complete control; read-out: Sedge, Umbrella plant response rating
Outline: as §2

rice (Oryra sativa) = assay: Test B flooded paddy test; details: Oryza sativa, 250 g ai/ha, Flood; 0 to 100 scale where 0 is no effect and 100 is complete control; read-out: Rice plant response rating
Outline: as §2

[12] = system: barnyardgrass (Echinochloa crus-galli); assay: Test B flooded paddy test; details: Echinochloa crus-galli, 250 g ai/ha, Flood; 0 to 100 scale where 0 is no effect and 100 is complete control; read-out: Barnyardgrass plant response rating
Outline: as §2

[13] = system: giant foxtail (Setaria faberii); assay: Test A preemergence; details: Setaria faberi, pre-emergence, 240 h, 0 to 100 scale where 0 is no effect and 100 is complete control, read-out: Foxtail, Giant plant response rating
Outline: as §1

[14] = system: ryegrass, Italian (Italian ryegrass, Lolium multiflorum); assay: Test A preemergence; details: Lolium multiflorum, pre-emergence, 240 h, 0 to 100 scale where 0 is no effect and 100 is complete control, read-out: Ryegrass, Italian plant response rating
Outline: as §1

[15] = system: pigweed (Amaranthus retroflexus); assay: Test A preemergence; details: Amaranthus retroflexus, pre-emergence, 240 h, 0 to 100 scale where 0 is no effect and 100 is complete control, read-out: Pigweed plant response rating
Kochia (Kochia scoparia) [16] = assay: Test A preemergence; details: Bassia scoparia, pre-emergence, 240 h, 0 to 100 scale where 0 is no effect and 100 is complete control, read-out: Kochia plant response rating
Outline: as §1

[17] = system: ragweed (common ragweed, Ambrosia elatior); assay: Test A preemergence; details: Ambrosia artemisiifolia, pre-emergence, 240 h, 0 to 100 scale where 0 is no effect and 100 is complete control, read-out: Ragweed plant response rating
Outline: as §1

[18] = system: barnyardgrass (Echinochloa crus-galli); assay: Test A preemergence; details: Echinochloa crus-galli, pre-emergence, 240 h, 0 to 100 scale where 0 is no effect and 100 is complete control, read-out: Barnyardgrass plant response rating
Outline: as §1

[19] = 125 g ai/ha, visual rating about 10 d after treatment
[20] = 31 g ai/ha, 0 is no effect, 100 is complete control
[21] = 125 g ai/ha, preemergence, visual injury rating, approximately 10 d

**Q.** With CN1C[C@H](c2csc3c2CCCC3)[C@@H](C(=O)Nc2ccccc2F)C1=O [Compound 1275] as the molecule, how does the pest or weed control at 125 g/ha [1, 19] read?
**A.** 0%

**Q.** And the pest or weed control at 31 g/ha [1, 20]?
**A.** 0%

**Q.** And the pest or weed control at 125 g/ha [2, 19]?
**A.** 70%

**Q.** What about the pest or weed control at 31 g/ha [2, 20] of the same molecule?
**A.** 20%

**Q.** And the pest or weed control at 125 g/ha [3, 19]?
**A.** 0%

**Q.** And the pest or weed control at 31 g/ha [3, 20]?
**A.** 0%

**Q.** What about the plant injury at 125 g/ha [4, 19] of the same molecule?
**A.** 0%

**Q.** And the plant injury at 31 g/ha [4, 20]?
**A.** 0%

**Q.** And the pest or weed control at 125 g/ha [5, 19]?
**A.** 0%

**Q.** What about the pest or weed control at 31 g/ha [5, 20] of the same molecule?
**A.** 0%

**Q.** And the pest or weed control at 125 g/ha [6, 19]?
**A.** 0%

**Q.** And the pest or weed control at 31 g/ha [6, 20]?
**A.** 0%

**Q.** And the pest or weed control at 125 g/ha (Kochia (Kochia scoparia) [7]; [19])?
**A.** 0%

**Q.** And the pest or weed control at 31 g/ha (Kochia (Kochia scoparia) [7]; [20])?
**A.** 0%

**Q.** And the pest or weed control at 125 g/ha [8, 19]?
**A.** 0%

**Q.** And the pest or weed control at 31 g/ha [8, 20]?
**A.** 0%

**Q.** And the pest or weed control at 125 g/ha ([9]; 125 g ai/ha, visual rating about 10 d after treatment, read-out: Barnyardgrass plant response rating (0 to 100 scale, 0 no effect, 100 complete control))?
**A.** 90%

**Q.** And the pest or weed control at 31 g/ha ([9]; 31 g ai/ha, 0 is no effect, 100 is complete control, read-out: Barnyardgrass plant response rating (0 to 100 scale))?
**A.** 30%

**Q.** What about the plant injury at 125 g/ha (corn (Zea mays); [19]) of the same molecule?
**A.** 0%

**Q.** And the plant injury at 31 g/ha (corn (Zea mays); [20])?
**A.** 0%

**Q.** What about the pest or weed control at 250 g/ha [10] of the same molecule?
**A.** 90%

**Q.** And the pest or weed control at 250 g/ha [11]?
**A.** 0%

**Q.** What about the pest or weed control at 250 g/ha (rice (Oryra sativa)) of the same molecule?
**A.** 20%

**Q.** And the pest or weed control at 250 g/ha [12]?
**A.** 75%

**Q.** What about the pest or weed control at 31 g/ha ([13]; 31 g ai/ha, Preemergence) of the same molecule?
**A.** 90%

**Q.** And the pest or weed control at 125 g/ha [13, 21]?
**A.** 100%

**Q.** What about the pest or weed control at 31 g/ha ([14]; 31 g ai/ha, Preemergence) of the same molecule?
**A.** 0%

**Q.** What about the pest or weed control at 125 g/ha [14, 21] of the same molecule?
**A.** 0%

**Q.** What about the pest or weed control at 31 g/ha ([15]; 31 g ai/ha, Preemergence) of the same molecule?
**A.** 0%

**Q.** And the pest or weed control at 125 g/ha [15, 21]?
**A.** 0%

**Q.** What about the pest or weed control at 31 g/ha (Kochia (Kochia scoparia) [16]; 31 g ai/ha, Preemergence) of the same molecule?
**A.** 0%

**Q.** And the pest or weed control at 125 g/ha (Kochia (Kochia scoparia) [16]; [21])?
**A.** 20%

**Q.** What about the pest or weed control at 31 g/ha ([17]; 31 g ai/ha, Preemergence) of the same molecule?
**A.** 0%

**Q.** And the pest or weed control at 125 g/ha [17, 21]?
**A.** 20%

**Q.** And the pest or weed control at 31 g/ha ([18]; 31 g ai/ha, Preemergence)?
**A.** 70%

**Q.** What about the pest or weed control at 125 g/ha [18, 21] of the same molecule?
**A.** 100%

— patent US12077503B2, “Substituted cyclic amides and their use as herbicides” (FMC CORPORATION, priority 2015, dated 2024)
